Assay results from US7884117B2, “Carbonylamino pyrrolopyrazoles, potent kinase inhibitors” (Pfizer Inc., priority 2005, dated 2011).
Where “and” joins values, the source holds several entries; their conditions need not be identical. Equal entries are not always repeated. Entries after “also recorded” stand apart in the source; their conditions may differ.

What was measured:
[1] = molecular target: T1, PAK4 Kinase domain (PAK4 KD) (Homo sapiens, UniProt O96013); assay: PAK4 kinase domain enzymatic assay (PK/LDH-coupled, Ki); type: biochemical; settings: PAK4 Kinase Domain
T1 construct: Cloning, expression, and purification of recombinant PAK4 Kinase domain (PAK4 KD); His tag (pET28a(+)/pET24a(+), Ni-NTA purification) (N, cleaved yes); GST (pGST4.5, glutathione column) (N, cleaved yes); made in house; host or cells: E. coli BL21(DE3)
T1 sequence (O96013 321-572 limits assumed): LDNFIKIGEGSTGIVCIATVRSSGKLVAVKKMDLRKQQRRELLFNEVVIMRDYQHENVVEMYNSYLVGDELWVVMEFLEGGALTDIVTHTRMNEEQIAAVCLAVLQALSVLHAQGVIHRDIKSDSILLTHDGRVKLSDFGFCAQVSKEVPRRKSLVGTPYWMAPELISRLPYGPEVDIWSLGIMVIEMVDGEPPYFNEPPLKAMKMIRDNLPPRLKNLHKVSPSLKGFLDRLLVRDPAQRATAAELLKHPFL

[2] = tested on: HCT116 human colorectal carcinoma tumor xenografts; assay: Tumor growth inhibition and tumor growth delay of HCT116 xenografts in athymic mice; type: in vivo; settings: for Tumor growth inhibition (TGI) % TGImax d39 / Tumor growth delay T-C1250 mm3: oral gavage; for Tumor growth inhibition (TGI) % TGImax d39: day 39, vs vehicle; for Tumor growth delay T-C1250 mm3: evaluation size 1250 mm3
Protocol: Material and preparation: The HCT116 cell line was obtained from American Type Culture Collection (ATCC, Bethesda, Md.). Cells were grown as monolayers in McCoy's media each supplemented with 10% FBS (each from Life Technologies, Inc., Bethesda, Md.) and maintained at 37° C. in a humidified atmosphere at 5% CO2. Tumor cells for implantation into athymic mice were harvested near confluence by incubation with 0.05% Trypsin-EDTA. Cells were pelleted at 450×g for 5-10 minutes and the cell pellets were re-suspended in serum-free McCoy's medium supplemented with 50% matrigel. Tumor cells (1×10^6 cells/animal) were implanted s.c. into the hindflank region of each mouse on day 0 and allowed to grow to the designated size prior to the administration of compound for each experiment.
Tumor growth inhibition: Treatment was initiated when tumors were approximately 200 mm3 in size. Compound of Example 2 or vehicle (methyl cellulose, MC) was administered as an oral gavage daily or every other day at 10 mL/kg. Tumors were measured using Vernier calipers, and tumor volumes were calculated utilizing the formula length×width2×0.4. Tumor volume was measured on the indicated days, with the median tumor volume indicated for each group of 12 animals; median±SEM. At the end of the study, the maximum percent tumor growth inhibition was calculated as 100×(tumor volumefinal−tumor volumeinitial) for Compound 1f Example 2-treated group/(tumor volumefinal−tumor volumeinitial) for vehicle group on day 39 and tumor growth delay was calculated as median […] when median tumor volume reached 1250 mm^3.
Tumor growth delay: Treatment with Compound of Example 2 began on day 11 when tumors reached a volume of ˜200 mm^3 and continued for 28 days until the control tumors reached evaluation size (1250 mm^3). Tumor measurement continued until treated tumors reached evaluation size (1250 mm^3) in order to assess tumor growth delay. Compound of Example 2 was administered to tumor-bearing mice by oral gavage as a solution in MC in 10 mL/kg volume and compared with vehicle alone administered in the same volume.

[3] = molecular target: T2, PAK4 kinase activity in whole cells (TR-293-KDG, modified HEK 293) (Homo sapiens, UniProt O96013); assay: PAK4 cellular assay: sandwich ELISA of PAK4-dependent phosphorylation of GEF-H1b in TR-293-KDG cells; type: cell-based; settings: 3-hour exposure
T2 construct: engineered to overexpress both GEF-H1b and the kinase domain (KD) of PAK4; expressed in transfected cells; host or cells: TR-293-KDG (modified HEK 293, Trex system, Invitrogen)
T2 sequence (O96013 321-572 limits assumed): as above

Ki [1]: 16.7 nM | EC50 [3]: 9.7 nM
SMILES: CN(C)C[C@@H](OC(=O)N1Cc2c(NC(=O)c3ccc(F)cc3)n[nH]c2C1(C)C)c1ccccc1 [Example 2, (1S)-2-(dimethylamino)-1-phenylethyl 3-[(4-fluorobenzoyl)amino]-6,6-dimethyl-4,6-dihydropyrrolo[3,4-c]pyrazole-5(1H)-carboxylate]
Tumor growth inhibition (TGI) % TGImax d39 ([2]; 50 mg/kg QD): 50% | Tumor growth delay T-C1250 mm3 ([2]; 50 mg/kg QD): 12.2 days | Tumor growth inhibition (TGI) % TGImax d39 ([2]; 75 mg/Kg/QOD): 37% and 36.6% | Tumor growth delay T-C1250 mm3 ([2]; 75 mg/Kg/QOD): 9.8 days | in vivo tumor growth inhibition/delay (in words) ([2]; HCT116 xenografts in athymic mice, oral): showed in vivo tumor growth inhibition; also recorded: inhibited/delayed growth | general health and body weight of treated mice ([2]; throughout the 28 day treatment cycle, oral): generally appeared healthy and continued to gain weight
